Source: ChEMBL document CHEMBL4665813, “Antifungal polybrominated proxyphylline derivative induces Candida albicans calcineurin stress response in Galleria mellonella” (Bioorg Med Chem Lett, 2020)
Active and inactive are the calls of the source. The rule behind the calls is not given here.

Experiments:
[1] = Inhibition of calcineurin phosphatase activity in human Jurkat cells by Western blot analysis; format: cell-based
[2] = Inhibition of calcineurin phosphatase activity (unknown origin); set-up: species or system Homo sapiens
Candida albicans [3] = test: Antifungal activity against Candida albicans harboring cnb1delta/CNB1 mutant infected in Galleria mellonella larvae assessed as increase in larvae survival at 0.64 ug/mg measured within 5 days; format: functional, organism-based; conditions: dose 0.64 µg/mg, time 5.0 day
Candida albicans [4] = test: Induction of cell membrane permeabilization in Candida albicans by flow cytometry analysis; format: functional, organism-based
[5] = Toxicity in Galleria mellonella infected with Candida albicans harboring cnb1delta/CNB1 assessed as formation of nodules at 0.64 microg/mg infected with fungi followed by compound treatment for 1 hr by hematoxylin and eosin staining based analysis; conditions: dose 0.64 µg/mg
Candida albicans [6] = test: Inhibition of calcineurin catalytic activity in Candida albicans at 5 uM
Candida albicans [7] = test: Decrease in chitin level in Candida albicans harboring cnb1delta/CNB1 mutant by measuring staining index at 20 uM after 18 hrs by calcofluor White staining based flow cytometry analysis; format: functional
Candida albicans [8] = test: Reduction in Candida albicans SC5314 adhesion to epithelium expressing wild-type SAP9/10 at 5 uM; format: functional, organism-based
Vero [9] = test: Inhibition of calcineurin in Candida albicans CAI4 assessed as change in CNB1 expression measured during invasion of African green monkey Vero cells at 5 uM after 18 hrs by RT-qPCR analysis (reference value: -3.66); format: cell-based
Vero [10] = test: Inhibition of calcineurin in Candida albicans harboring sap9delta mutant assessed as change in CNB1 expression measured during invasion of African green monkey Vero cells at 5 uM after 18 hrs by RT-qPCR analysis (reference value: -4.39)
Candida albicans [11] = test: Antibiofilm activity against Candida albicans at 5 to 20 uM; format: functional, organism-based; conditions: dose microM 5-20
Candida albicans [12] = test: Reduction in Candida albicans SC5314 adhesion to epithelium expressing wild-type SAP9/10 at 20 uM; format: functional, organism-based
[13] = Toxicity in Galleria mellonella infected with Candida albicans harboring cnb1delta/CNB1 assessed as effect on melanization at 0.64 microg/mg pre-treated with compound for 1 hr followed by fungal infection by hematoxylin and eosin staining based analysis; conditions: dose 0.64 µg/mg
Vero [14] = test: Inhibition of calcineurin in Candida albicans harboring sap9/10delta mutant assessed as change in CNB1 expression measured during invasion of African green monkey Vero cells at 5 uM after 8 hrs by RT-qPCR analysis relative to control
Candida albicans [15] = test: Reduction in Candida albicans adhesion to epithelium expressing SAP9/10 mutant relative to control; format: functional; set-up: scale not given: the % may be the effect or the level left
Candida albicans [16] = test: Induction of apoptosis in wild type Candida albicans SC5314 at 20 uM; format: functional
Candida albicans [17] = test: Antifungal activity against Candida albicans CAI4 infected in Galleria mellonella larvae assessed as increase in larvae survival at 0.64 ug/mg measured within 5 days; format: functional, organism-based; conditions: time 5.0 day
[18] = Toxicity in Galleria mellonella infected with Candida albicans harboring cnb1delta/CNB1 assessed as effect on haemocyte aggregation at 0.64 microg/mg pre-treated with compound for 1 hr followed by fungal infection by hematoxylin and eosin staining based analysis
Candida albicans [19] = test: Induction of apoptosis in Candida albicans harboring cnb1delta mutant at 20 uM; format: functional, organism-based
Candida albicans [20] = test: Induction of apoptosis in Candida albicans at sub-MIC; format: functional, organism-based
[21] = Toxicity in Galleria mellonella infected with Candida albicans CAI4 assessed as haemocyte aggregation in tracheal walls at 0.64 microg/mg infected with fungi followed by compound treatment for 1 hr by hematoxylin and eosin staining based analysis; conditions: dose 0.64 µg/mg
Vero [22] = test: Inhibition of calcineurin in Candida albicans harboring sap9/10delta mutant assessed as change in CNB1 expression measured during invasion of African green monkey Vero cells at 5 uM after 18 hrs by RT-qPCR analysis (reference value: -1.67)
Candida albicans [23] = test: Induction of necrosis in Candida albicans by flow cytometry analysis; format: functional

C=CC[C@@H]1/C=C(\C)C[C@H](C)C[C@H](OC)[C@H]2O[C@@](O)(C(=O)C(=O)N3CCCC[C@H]3C(=O)O[C@H](/C(C)=C/[C@@H]3CC[C@@H](O)[C@H](OC)C3)[C@H](C)[C@@H](O)CC1=O)[C@H](C)C[C@@H]2OC [TACROLIMUS ANHYDROUS]
IC50 [1]: 2 nM | IC50 [2]: 0.4 nM

CC(Cn1cnc2c1c(=O)n(C)c(=O)n2C)OCc1cn(CCCn2nc3c(Br)c(Br)c(Br)c(Br)c3n2)nn1 (stereo not drawn)
Activity (Candida albicans [3]): Active | Activity (Candida albicans [4]): Dose-dependent effect | Activity [5]: Non-Toxic | inhibition (Candida albicans [6]): Active | Activity (Candida albicans [7]): Active | Activity (Candida albicans [8]): inactive | fold change (FC) (Vero [9]): -2.98 | fold change (FC) (Vero [10]): 0.24 | Activity (Candida albicans [11]): Active | Activity (Candida albicans [12]): Active | Activity [13]: Non-Toxic | fold change (FC) (Vero [14]): -2.38 | Activity (Candida albicans [15]): 100% | Activity (Candida albicans [16]): Active | Activity (Candida albicans [17]): Active | Activity [18]: Non-Toxic | Activity (Candida albicans [19]): Active | Activity (Candida albicans [20]): Active | Activity [21]: Toxic | fold change (FC) (Vero [22]): -4.52 | Activity (Candida albicans [23]): Dose-dependent effect
